Data published in patent publication US20030134851A1, “Methods and compositions for providing glutamine” (priority 2001, published 2003).

What was measured:
[1] = administered intravenously, humans; cited from earlier work
[2] = pig, in vivo
Source text: Twenty-two domestic pigs weighing 15-20 kg were acclimated to lab conditions over 4 days. The pigs were fed a standard pig diet, which followed energetic requirements for these animals (Nutrient Requirements of Swine, 9th, 1998, Subcommittee on Swine Nutrition, National Research Council) and water ad libitum. Animals were randomly assigned into group C [6 pigs, receiving a glucosaline solution (Braun cat No 622647), 5% glucose, 0.9% NaCI], group G [8 pigs, receiving the same glucosaline solution fortified with 8 g/l of Gln, (Sigma cat No G-3126)], and group N [8 pigs, receiving the same glucosaline solution fortified with 10 g/l of NAQ, (Sigma cat No A-9125)]. Before surgery, animals were fasted 15 h. The day of experiment, animals were weighed and anaesthetized using Stresnil® and penthotal. […]
The analysis for N-acetyl-L-glutamine was conducted as follows. […] The detection and quantification of N-acetyl-L-glutamine was monitored at 210 nm.
The analysis for glutamine and glutamate was conducted as follows. […] After 1 minute the sample was diluted to 1 mL and injected into the HPLC system, consisting of a 2690 Separation Module, fluorescence detector and a SupelcoSil LC-18 column (250×4 mm, 3 micrometers). […] The detection and quantification of glutamate and glutamine was accomplished using an excitation wavelength of 250 nm and monitoring emission at 395 nm. […]

Q: With `CC(=O)N[C@@H](CCC(N)=O)C(=O)O` [N-acetyl-L-glutamine] as the compound, how does the “Dose excreted in the urine” value [1] read?
A: Its value is 20-40%.

Q: And the “Glutamine in portal blood, N group versus G group” value [2]?
A: The value was “no significant differences between G and N”.
